# Reference: US6255273A, “Hydrofluoropolyether-based azeotropic or near azeotropic compositions” (Ausimont S.p.A., priority 1998, dated 2001)
# Columns and labels:
# [1] = water removal from glass surfaces; settings: with 600 ppm by weight surfactant; CFC 113 42° C., HCFC123 mixture 23° C., tDCE mixture 35° C.
# Experimental: In a cylindrical container having a 46 cm diameter and a 56 cm height, equipped with a neoprene closing stopper (cover), 30 ml of the solution to be tested are introduced.
# The compositions, indicated in Table 22, used for the water removal tests are prepared in a 50 ml flask and are heated in a thermostatic bath at a temperature of about 5° C. lower than the boiling temperature of the solution itself.
# After heating the solution is transferred in the test container equipped with cover.
# On a glass surface having 37×25×1 mm sizes, 0.015 g of water are deposited in the form of small drops.
# The glass is placed on a metal frame which is used to carry out the article dipping in the liquid phase of the solution to be tested.
# The container for the test is opened and the frame is slowly dipped into the solution; the frame upper part runs in a hole made in the rubber cover (cap) which closes the container.
# When two minutes have elapsed, the frame is lifted from the liquid phase, by letting run the external end part through the hole present in the cover (cap); the glass will remain exposed to the solution vapours for one minute, then it is removed from the container and weighed.
# [2] = background; cited from earlier work
# [3] = oily product removal from molded circuits, oil (1); settings: 23° C.; methyl alcohol mixture 51° C., tDCE mixture 25° C., acetone mixture 66° C.; 5 min dipping
# Experimental: (§1) The oily product removal capacity from molded circuits has been verified according to the following method: a known amount of an oily product is uniformly spread on the molded circuit surface having 35×19 mm sizes; 0.100 g of oil are spread on a single surface of the circuit, then the article is dipped in the solution to be tested.
# (§2) After 5 minutes of dipping, the circuit is allowed to drie for further 5 minutes at room temperature so as to remove the solvent traces and then it is weighed again on an analytical balance.
# (§3) The following oily products have been used:
# 1) Alkyl Benzene-Zerice S 46 oil by ESSO
# (§4) Tests are carried out at room temperature (23-250° C.) and tests at the boiling temperature of the solvent mixtures. In the latter case the solvent is placed in a vessel equipped with a refrigerant under reflux which recovers the vapour of the boiling solution.
# (§5) In all the tests 30 ml of solvent solution have been used.
# [4] = Kauri-butanol index, modified ASTM D1133-86; format: physicochemical
# Experimental: The solvent effect of the HFPE-based mixtures is evaluated by determination of the Kauri-butanol index, reported in Table 19, according to ASTM […]-86 method. […] The Kauri-butanol solution is stirred by a magnetic stirrer. The end titration point is identified in connection with a diffused turbidity which appears in the Kauri-butanol solution due to the resin separation.
# [5] = oily product removal from molded circuits, oil (2); settings: 23° C.; methyl alcohol mixture 51° C., tDCE mixture 25° C., acetone mixture 66° C.; 5 min dipping
# Experimental: as §1, §2, §3, §4, §5
# [6] = oily product removal from molded circuits, oil (4); settings: 23° C.; methyl alcohol mixture 51° C., tDCE mixture 25° C., acetone mixture 66° C.; 5 min dipping
# Experimental: as §1, §2, §3
# 4) Mineral-Clavus 32 oil by SHELL.
# as §4, §5
# rats [7] = experiment: Acute toxicity in rats by inhalation; format: in vivo; settings: 4 hours
# [8] = oily product removal from molded circuits, oil (3); settings: 23° C.; methyl alcohol mixture 51° C., tDCE mixture 25° C., acetone mixture 66° C.; 5 min dipping
# Experimental: as §1, §2, §3
# 3) Ester-Icematic SW 100 oil by CASTROL
# as §4, §5
# [9] = Hydrofluoropolyether chemical-physical characteristics (Table 1); format: physicochemical; settings: for BOILING TEMPERATURE / Evaporation latent heat: at 1.013 bar; for Isotherm evaporation speed / Surface pressure: at 20° C.; for Liquid density: at 25° C.; for Flammability in air: in air (% volume)
# [10] = evaluation of the boiling temperature at the pressure of 1.013 bar (binary mixtures); format: physicochemical
# rats [11] = experiment: Acute toxicity in rats per os; format: in vivo; parameters: unit not given here
# [12] = Table 2, HCF2 OCF2 OCF2 H/HCFC 123, number in label = % by wt. HCF2 OCF2 OCF2 H
# [13] = Table 7, HCF2 OCF2 OCF2 H/HFC 356 ffa, number in label = % by wt. HCF2 OCF2 OCF2 H
# [14] = Table 6, HCF2 OCF2 OCF2 H/HFC 365 mfc, number in label = % by wt. HCF2 OCF2 OCF2 H
# [15] = Table 5, HCF2 OCF2 OCF2 H/acetone, number in label = % by wt. HCF2 OCF2 OCF2 H
# [16] = Table 8, HCF2 OCF2 OCF2 H/metoxymethyl methyl ether, number in label = % by wt. HCF2 OCF2 OCF2 H
# [17] = Table 10, HCF2 OCF2 OCF2 H/tDCE, number in label = % by wt. HCF2 OCF2 OCF2 H
# [18] = Table 12, HCF2 OCF2 CF2 OCF2 H/acetone, number in label = % by wt. HCF2 OCF2 CF2 OCF2 H
# [19] = Table 13, HCF2 OCF2 CF2 OCF2 H/methyl alcohol, number in label = % by wt. HCF2 OCF2 CF2 OCF2 H
# [20] = Table 15, HCF2 OCF2 CF2 OCF2 H/tDCE, number in label = % by wt. HCF2 OCF2 CF2 OCF2 H
# [21] = Table 16, HCF2 OCF2 CF2 OCF2 H/ethyl alcohol, number in label = % by wt. HCF2 OCF2 CF2 OCF2 H
structure (smiles),measurement,setting,value
"FC(F)(Cl)C(F)(Cl)Cl [CFC 113, 1,1,2-trichloro-1,2,2-trifluoroethane]",removed water,[1],100 % by weight
same,flammability,[2],non flammable
same,stability,[2],stable
same,toxicity,[2],non toxic
same,"Percentage of removed oil, oil (1) Alkyl Benzene-Zerice S 46",[3],100 % by weight
same,Kauri-butanol index,[4],31
same,"Percentage of removed oil, oil (2) FluoroSilicone-FS 1265",[5],99.5 % by weight
same,"Percentage of removed oil, oil (4) Mineral-Clavus 32",[6],100 % by weight
same,"Acute toxicity in rats by inhalation, LC50",rats [7],50000 ppmv/4 hours
same,"Percentage of removed oil, oil (3) Ester-Icematic SW 100",[8],100 % by weight
same,BOILING TEMPERATURE,[9],47.55 °C
same,Evaporation latent heat,[9],144 kJ/kg
same,Isotherm evaporation speed,[9],1 mg/min
same,Surface pressure,[9],18.1 dynes/cm
same,Liquid density,[9],1.56 g/mL
same,Flammability in air,[9],non
"FC(F)(F)C(Cl)Cl [HCFC 123, 1,1-dichloro-2,2,2-trifluoroethane, reference compound]",BOILING TEMPERATURE,[10]; [12],27.54 °C
CC(F)(Cl)Cl [HCFC 141b],flammability,[2],moderately flammable
"FC(F)(F)CCC(F)(F)F [HFC 356 ffa, 1,1,1,4,4,4-hexafluorobutane, reference compound]",BOILING TEMPERATURE,[10]; [13],24.71 °C
"CC(F)(F)CC(F)(F)F [HFC 365 mfc, 1,1,1,3,3-pentafluorobutane, reference compound]",BOILING TEMPERATURE,[10]; [14],40.09 °C
"FC(F)OC(F)(F)OC(F)F [HFPE1, difluoromethoxy-bis(difluoromethyl ether)]","Acute toxicity in rats per os, LD50",rats [11],> 5000
same,BOILING TEMPERATURE,[10]; [12],35.39 °C
same,BOILING TEMPERATURE,"[10]; Table 3, HCF2 OCF2 OCF2 H/n-pentane, number in label = % by weight HCF2 OCF2 OCF2 H",35.39 °C
same,BOILING TEMPERATURE,"[10]; Table 4, HCF2 OCF2 OCF2 H/iso-pentane, number in label = % by wt. HCF2 OCF2 OCF2 H",35.39 °C
same,BOILING TEMPERATURE,[10]; [15],35.39 °C
same,BOILING TEMPERATURE,[10]; [14],35.39 °C
same,BOILING TEMPERATURE,[10]; [13],35.39 °C
same,BOILING TEMPERATURE,[10]; [16],35.39 °C
same,BOILING TEMPERATURE,"[10]; Table 9, HCF2 OCF2 OCF2 H/n-hexane, number in label = % by wt. HCF2 OCF2 OCF2 H",35.39 °C
same,BOILING TEMPERATURE,[10]; [17],35.39 °C
same,"Acute toxicity in rats by inhalation, LC50",rats [7],> 32000 ppmv/4 hours
same,BOILING TEMPERATURE,[9],35.39 °C
same,Evaporation latent heat,[9],165 kJ/kg
same,Isotherm evaporation speed,[9],1.5 mg/min
same,Surface pressure,[9],14.0 dynes/cm
same,Liquid density,[9],1.54 g/mL
same,Flammability in air,[9],non flammable
"FC(F)OC(F)(F)C(F)(F)OC(F)F [HFPE2, 1-difluoromethoxy-1,1,2,2-tetrafluoroethyl difluoromethyl ether]","Acute toxicity in rats per os, LD50",rats [11],> 5000
same,BOILING TEMPERATURE,"[10]; Table 11, HCF2 OCF2 CF2 OCF2 H/n-pentane, number in label = % by wt. HCF2 OCF2 CF2 OCF2 H",58.21 °C
same,BOILING TEMPERATURE,[10]; [18],58.21 °C
same,BOILING TEMPERATURE,[10]; [19],58.21 °C
same,BOILING TEMPERATURE,"[10]; Table 14, HCF2 OCF2 CF2 OCF2 H/n-hexane, number in label = % by wt. HCF2 OCF2 CF2 OCF2 H",58.21 °C
same,BOILING TEMPERATURE,[10]; [20],58.21 °C
same,BOILING TEMPERATURE,[10]; [21],58.21 °C
same,"Acute toxicity in rats by inhalation, LC50",rats [7],> 32000 ppmv/4 hours
same,BOILING TEMPERATURE,[9],58.21 °C
same,Evaporation latent heat,[9],139 kJ/kg
same,Isotherm evaporation speed,[9],0.6 mg/min
same,Surface pressure,[9],15.5 dynes/cm
same,Liquid density,[9],1.60 g/mL
same,Flammability in air,[9],non flammable
"CC(C)=O [acetone, dimethyl ketone, reference compound]",BOILING TEMPERATURE,[10]; [15],56.50 °C
same,BOILING TEMPERATURE,[10]; [18],56.50 °C
"CCO [ethyl alcohol, reference compound]",BOILING TEMPERATURE,[10]; [21],78.50 °C
"CO [methyl alcohol, reference compound]",BOILING TEMPERATURE,[10]; [19],65.00 °C
"COCOC [metoxymethyl methyl ether, methoxymethyl methyl ether, reference compound]",BOILING TEMPERATURE,[10]; [16],41.96 °C
"Cl/C=C/Cl [tDCE, trans 1,2-dichloroethylene, reference compound]",BOILING TEMPERATURE,[10]; [17],46.70 °C
same,BOILING TEMPERATURE,[10]; [20],46.79 °C
